How the values were obtained:
Type in all cases: in vivo
[1] = system: Puccinia recondita (PUCCRT); assay: Field assessment of brown rust of wheat (PUCCRT), 2 field trials, relative AUDPC; details: % control based on AUDPC, average of 2 trials
Source text: (§1) Treatments consisted of the compound of Formula I and fenpicoxamid either using individually or as a two-way mixture with the compound of Formula I. The compound of Formula I was applied with Agnique BP-420 (50% w/w at 0.3% v/v) at 75 and 150 g ai/ha and fenpicoxamid was applied with Agnique BP-420 (50% w/w at 0.3% v/v) at 75 and 100 g ai/ha. Commercial standards used in the studies were Fluxapyroxad (Imtrex), applied at 100 g ai/ha, and Metconazole+Fluxapyroxad (Librax), applied at 161 g ai/ha.
Field Assessment of Puccinia recondita (PUCCRT) in Wheat:
Fungicidal treatment containing the compound of Formula I and fenpicoxamid, either individually or as a two mixture, were assessed against brown rust of wheat (PUCCRT) in two separate field trials. In the first trial, fungicidal treatments were applied at B37-39 (protectant, approximately 0% infection at application) growth stage of wheat (TRZAW, MV Vanek variety) under natural infection of brown rust. The treatment was part of an experimental trial designed as a randomized complete block with four replications and a plot of approximately 2×3 m. Fungicidal treatments were applied at a water volume of 200 L/ha, using a backpack plot sprayer with a TEEJET QJ90-2XTT110 015 Nozzle.
In the second trial, fungicidal treatments containing the compound of Formula I and fenpicoxamid, either individually or as a two way mixture, were applied at B33 (curative, approximately 6.6% infection at application) growth stage of wheat (TRZAW, Miradoux variety) under natural infection of brown rust. The treatments were part of an experimental trial designed as a randomized complete block with four replications and a plot of approximately 2×3 m. Fungicidal treatments were applied at a water volume of 200 L/ha, using a backpack plot sprayer with a HARDI MD110-02 Nozzle.
(§2) Disease severity (percentage of visual diseased foliage on whole plot or leaves) in both field trials was assessed at 5 weeks after application and was recorded following EPPO PP1/26 guideline prescriptions. Area under the disease progress curve (AUDPC) was calculated for each plot in both trials using the sets of recorded severity data. Relative AUDPC (% control based on AUDPC) was calculated as percent of the nontreated control. Final results for the control of brown rust of wheat by the compound of Formula I, fenpicoxamid, and mixtures are reported as an average of the relative AUDPC calculated over both field trials. Statistical analysis was done according to ANOVA and Tukey's test (p=0.10).

[2] = system: Puccinia striiformis (PUCCST); assay: Field assessment of yellow rust of wheat (PUCCST), 2 field trials, relative AUDPC; details: % control based on AUDPC, average of 2 trials
Source text: as §1
Field Assessment of Puccinia striiformis (PUCCST) in Wheat:
Fungicidal treatments containing the compound of Formula I and fenpicoxamid, either individually or as a two way mixture, were assessed against yellow rust of wheat (PUCCST) in two separate field trials. In the first trial, fungicidal treatments were applied twice at B31-32 (early curative, 4% infection at application on L3) and B39 (16.3% infection at application on L3) growth stages of winter wheat (TRZAW, Fairplay variety) under naturally occurring infection with PUCCST. The treatments were part of an experimental trial designed as a randomized complete block with four replications and a plot of approximately 1×6 m. Treatments were applied at water volume of 200 L/ha, using a backpack plot sprayer (BKPCKENG, F110-015 Hardi (3) Flat fan nozzle) and pressurized at 200 kPa.
In the second trial, fungicidal treatments containing the compound of Formula I and fenpicoxamid, either individually or as a two way mixture, were applied twice at B32 (protectant, 0% infection on L3 at application) and B37 (early curative, 20% infection on L3 at application) growth stages of wheat (TRZAW, Torch variety) under naturally occurring infection with PUCCST. The treatment was part of an experimental trial designed as a randomized complete block with four replications and a plot of approximately 2×4 m. Treatments were applied at water volume of 200 L/ha, using a backpack precision plot sprayer (BKCKAIR, F110-03 Hypro (4) Flat fan nozzle) and pressurized at 210 kPa.
as §2, with “4-7” for “5”, “yellow” for “brown”

[3] = system: Zymoseptoria tritici (SEPTTR); assay: Field assessment of leaf blotch of wheat (SEPTTR), 3 field trials, relative AUDPC; details: % control based on AUDPC, average of 3 trials
Source text: as §1
Field Assessment of Zymoseptoria Tritici (SEPTTR) in Wheat:
Fungicidal treatments containing the compound of Formula I and fenpicoxamid, either individually or as a two way mixture, were assessed against leaf spot of wheat (SEPTTR) in three separate field trials. In the first trial, fungicidal treatments were applied at B37 (curative, 1.8% infection at application on L4) growth stage of winter wheat (TRZAW, Sy moisson variety) under naturally occurring infection with SEPTTR. The treatments were part of an experimental trial designed as a randomized complete block with four replications and a plot of approximately 2×4 m. Treatments were applied at water volume of 200 L/ha, using a backpack plot sprayer (BKPCKAIR, FLAT FAN nozzle) and pressurized at 250 kPa.
In the second trial, fungicidal treatments were applied twice at B32 (curative, 15% infection at application on L5) and B39 (16% infection at application on L4) growth stages of winter wheat (TRZAW, Riband variety) under naturally occurring infection with SEPTTR. The treatments were part of an experimental trial designed as a randomized complete block with four replications and a plot of approximately 1.5×2 m. Treatments were applied at water volume of 200 L/ha, using a backpack plot sprayer (BKPCKAIR, Flat fan nozzle) and pressurized at 180 kPa.
In the final trial, fungicidal treatments were applied twice at B32 (protective, 15% infection at application on L6) and B37 (12% infection at application on L5) growth stages of winter wheat (TRZAW, Smaragd variety) under naturally occurring infection with SEPTTR. […]
as §2, with “at 7-9” for “at 5”, “of leaf spot” for “of brown rust”, “over all three” for “over both”, “trials. […]” for “trials. Statistical analysis was done according to ANOVA and Tukey's test (p=0.10).”

Compound | PUCCRT % Control ([1]; 75 g ai/ha) [%] | PUCCRT % Control ([1]; 150 g ai/ha) [%] | PUCCST % Control ([2]; 75 g ai/ha) [%] | PUCCST % Control ([2]; 150 g ai/ha) [%] | SEPTTR % Control ([3]; 75 g ai/ha) [%] | SEPTTR % Control ([3]; 150 g ai/ha) [%] | PUCCRT % Control ([1]; 100 g ai/ha) [%] | PUCCST % Control ([2]; 100 g ai/ha) [%] | SEPTTR % Control ([3]; 50 g ai/ha) [%]
N#Cc1ccc(Oc2ccc(C(F)(F)C(O)(Cn3nc[nH]c3=S)c3ccc(F)cc3F)nc2)cc1 (stereo not drawn) [Compound I, 4-((6-(2-(2,4-difluorophenyl)-1,1-difluoro-2-hydroxy-3-(5-thioxo-4,5-dihydro-1H-1,2,4-triazol-1-yl)propyl)pyridin-3-yl)oxy)benzonitrile] | 79.7 | 89.0 | 82.7 | 85.5 | 48.2 | 65.8 | – | – | –
COc1ccnc(C(=O)N[C@H]2COC(=O)[C@H](Cc3ccccc3)[C@@H](OC(=O)C(C)C)[C@H](C)OC2=O)c1OCOC(=O)C(C)C [Fenpicoxamid, (3S,6S,7R,8R)-8-benzyl-3-(3-((isobutyryloxy)methoxy)-4-methoxypicolinamido)-6-methyl-4,9-dioxo-1,5-dioxonan-7-yl isobutyrate] | 63.5 | – | 56.5 | – | 57.7 | – | 74.5 | 60.5 | 48.7
